Assays:
[1] = tested on: D. citri; assay: 4-choice olfactometer behavioral bioassay; assay type: in vivo, Diaphorina citri; details: for t (percentages of repelled versus attracted D. citri, student's t-test): laboratory air, 1.5 h
Protocol: Adult D. citri used for the behavioral bioassays were drawn from a continuously reared culture at the University of Florida Citrus Research and Education Center (Lake Alfred, USA) and established in 2000 from field populations in Polk Co., FL, USA (28.0′N, 81.9′W) prior to the discovery of citrus greening disease in FL. This culture is maintained on sour orange (Citrus aurantium L.) and ‘Hamlin’ orange [C. sinensis (L.)] seedlings at 27±1° C., 63±2% RH, and L14:D10 photoperiod. Freshly emerged unsexed adult psyllids were first placed on citrus seedlings in Plexiglass cages for up to 7 d for sexual maturation prior to use in experiments.
Husbandry methods for the ‘white’ guava and ‘Hamlin’ citrus plants used in these investigations have been described previously (Rouseff et al., 2008). ‘Hamlin’ citrus was selected for analysis because it is one of the most highly cultivated citrus varieties in Florida. Half of the samples were gently crushed (using a clean glass rod) to simulate plant damage and the remaining half were not crushed. All samples ([…] leaf flush/sample) were wrapped in Kim wipes (Kimberly-Clark®, Ontario, Canada) and placed in 2.5 cm×12.5 cm extending glass tubes of a 4-choice olfactometer [Analytical Research Systems, ARS (Gainesville, Fla.)], for behavioral investigations described below.
Behavioral responses of D. citri to citrus volatiles with or without guava or DMDS volatiles were quantified using a 4-choice olfactometer (Analytical Research Systems, Inc. (ARS), Gainesville, Fla., USA) based on the design of Pettersson (1970), Vet et al. (1983) and Kalule & Wright (2004). The olfactometer consists of a 5 cm×30 cm×30 cm stage on four 2.5 cm×15 cm legs with extending orifices on four sides of the stage. Charcoal-purified and humidified air was drawn through these arms via a vacuum pump creating four potential odor fields. Air pulled through the olfactometer was evacuated through a central orifice on the floor of the stage. During each experimental run, two of the four orifices on the sides of the stage were designated for odor stimuli treatments and the two others were left as blank. […] The effect of repellent chemicals was measured by adding guava leaves or a formulation of synthetic DMDS to citrus flush in two arms of the olfactometer as described below. […]
The behavioral response of adult D. citri to clean laboratory air was first investigated to 4 blank arms of the olfactometer as a negative control to ensure no positional bias. Thereafter, D. citri response was measured to citrus leaf volatiles with and without volatiles from guava leaves or synthetic DMDS. […]

[2] = tested on: D. citri; assay: Y-tube olfactometer test; assay type: in vivo, Diaphorina citri
Protocol: In order to confirm the repellent effect of synthetic DMDS against D. citri, an additional study using a Y-tube olfactometer (ARS, Gainesville, Fla., USA) was conducted. The Y-tube consisted of a central stem (13.5 cm long, 2.4 cm o.d.) with two lateral arms (5.75 cm long, 2.4 cm o.d.). The lateral arms were connected to extending glass tubes (14.5 cm long, 1.9 cm o.d.) with inlayed sieves (5.25 cm away from connection) to prevent insect escape and serve as an end point of the lateral arms. Charcoal-filtered laboratory air was passed from an air pump, into each of the extending arms of the olfactometer at a rate 100 mL/min. […]
Adult psyllids that oriented to any of the four arms of the olfactometer were categorized as attracted and those that remained in the olfactometer's central orifice (release point) until the 1.5 h experimental period elapsed as repelled. […] Subsequently, data obtained for D. citri orientation to the four arms (two volatile sources and two laboratory air) was analyzed for each treatment using one-way step-wise ANOVA followed by Tukey's HSD test (P<0.05, SAS Institute Inc., 2003). The data obtained from the Y-tube olfactometer bioassays was analyzed using Chi-square (χ^2) analyses (Parker, 1979) to compare between the numbers of attracted versus repelled D. citri (P<0.05).

[3] = tested on: Mediterranean fruit fly, Ceratitis capitata; details: literature reference 23; cited from earlier work

| SMILES | repellence of adult D. citri at the selected dosage (preliminary investigation) ([1]; 100 μL of a 4.3 μg/μL (w/v) solution in mineral oil on cotton wick, compared with lower dosages on a log scale (data not shown)) | t (percentages of repelled versus attracted D. citri, student's t-test) ([1]; Experiment 2: arms laboratory air, intact citrus, DMDS, 100 μL of 4.3 μg/μL DMDS in mineral oil) | t (percentages of repelled versus attracted D. citri, student's t-test) ([1]; Experiment 3: arms laboratory air, crushed citrus, DMDS) | t (percentages of repelled versus attracted D. citri, student's t-test) ([1]; Experiment 4: arms laboratory air, mineral oil, DMDS (DMDS only)) | effect on D. citri's response to citrus flush volatiles ([2]; Y-tube first experiment: 100 μL DMDS solution in mineral oil plus ~3.5 g citrus flush in both arms versus citrus alone, χ2=2.57, P=0.109) | percentage of D. citri choosing the arm releasing clean air versus DMDS ([2]; Y-tube second experiment: DMDS in mineral oil in one arm, clean laboratory air in the other, 300 s, χ2=5.0, P=0.025) | reported behavioural effect on Mediterranean fruit fly [3] |
| --- | --- | --- | --- | --- | --- | --- | --- |
| CSSC [DMDS, dimethyl disulfide] | optimally repel | 3.05 | 7.23 | 6.25 | significantly inhibited | ~75% |  |
| CC1=CC[C@H]2[C@H]3[C@@H]1[C@]2(C)CC[C@H]3C(C)C [α-Copaene] |  |  |  |  |  |  | attractant |

Reference: US8372443B2, “Methods and compositions for the treatment and prevention of citrus greening disease” (priority 2008, dated 2013)
